From the supplement of paper PMC8671470

Tests used:
Experiment in all cases: cell viability (% survival relative to DMSO control); higher = less cytotoxic
Settings in all cases: 72 h
[1] = tested on: myeloid leukemia patient primary cells Pat.11
How it was run: (§1)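 Mononuclear cells from patients with AML or CML were thawed, purified on Ficoll and placed in RPMI 1640 with 10% FBS at 10,000 cells/well on 384-well plates. The plates came pre-printed with 70 compounds at five tenfold concentrations spanning 1–10,000 nM, in duplicate, and cells were exposed for 72 h. CellTiter-Glo gave viability, scaled between DMSO wells and wells with 10 μM proteasome inhibitor. Where reported, area under the curve was obtained from log-logistic fits with four parameters using the drc and PharmacoGx R packages.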

[2] = tested on: myeloid leukemia patient primary cells Pat.13
How it was run: as §1

[3] = tested on: myeloid leukemia patient primary cells Pat.6
How it was run: as §1

[4] = tested on: myeloid leukemia patient primary cells Pat.10
How it was run: as §1

Row | SMILES | cell viability ([1]; 1 nM) | cell viability ([1]; 10 nM) | cell viability ([1]; 100 nM) | cell viability ([1]; 1000 nM) | cell viability ([1]; 10000 nM) | cell viability ([2]; 1 nM) | cell viability ([2]; 10 nM) | cell viability ([2]; 100 nM) | cell viability ([2]; 1000 nM) | cell viability ([2]; 10000 nM) | cell viability ([3]; 1 nM) | cell viability ([3]; 10 nM) | cell viability ([3]; 100 nM) | cell viability ([3]; 1000 nM) | cell viability ([3]; 10000 nM) | cell viability ([4]; 1 nM) | cell viability ([4]; 10 nM) | cell viability ([4]; 100 nM) | cell viability ([4]; 1000 nM) | cell viability ([4]; 10000 nM)
1 | Sc1ncnc2nc[nH]c12 [6-mercaptopurine] | > 100% | 98.2% | 97.6% | 97.9% | 98.1% | 79.6% | 88.3% | 84.9% | 84.9% | 93.2% | 89.3% | > 100% | 99.8% | 88.3% | 97.9% | 59% | 63.4% | 70.1% | 72.4% | 56.6%
2 | Cc1noc2c1-c1ccccc1C(c1ccc(Cl)cc1)=N[C@H]2CC(N)=O [CPI-0610] | > 100% | 93% | 93.6% | 54.3% | 51.8% | 90.2% | 95.2% | 87.3% | 52.2% | 46.9% | > 100% | 87.9% | > 100% | 87.9% | 69.7% | 68.5% | 91.9% | 29.6% | 27.8% | 39.2%
3 | Nc1ccn([C@@H]2O[C@H](CO)[C@@H](O)[C@@H]2O)c(=O)n1 [Cytarabine] | 95.7% | 93.6% | > 100% | 89.3% | 41.1% | 91.9% | 68.8% | 85.2% | 60.1% | 9.9% | > 100% | 78.9% | 89.5% | 86.6% | 36.2% | 89.9% | 45.1% | 67% | 54.1% | 13.9%
4 | CCN(CC)CCN(Cc1ccc(-c2ccc(C(F)(F)F)cc2)cc1)C(=O)Cn1c(SCc2ccc(F)cc2)nc(=O)c2c1CCC2 [Darapladib] | 87.2% | 98.3% | 85.3% | 88.2% | 0.357% | 74.1% | 80.5% | 74.2% | 71.2% | < 0% | 80.4% | 90% | 72.6% | 79.3% | 0.0489% | 66.6% | 77.8% | 12.3% | 93.5% | 4.94%
5 | CC12CCC(O)CC1CCC1C2CCC2(C)C(C3=CC(=O)OC3)CCC12O (stereo not given) [Digitoxigenin] | 99.8% | 94.1% | 94.8% | 31.9% | 9.33% | > 100% | 64.8% | 91.8% | 15% | 4.96% | 99.7% | 92.2% | 93.7% | 39.5% | 11.2% | 71.9% | 52.2% | > 100% | 96.8% | > 100%
6 | C[C@H]1O[C@@H](O[C@H]2[C@@H](O)C[C@H](O[C@H]3[C@@H](O)C[C@H](O[C@H]4CC[C@@]5(C)[C@H](CC[C@@H]6[C@@H]5C[C@@H](O)[C@]5(C)[C@@H](C7=CC(=O)OC7)CC[C@]65O)C4)O[C@@H]3C)O[C@@H]2C)C[C@H](O)[C@@H]1O [Digoxin] | > 100% | 97.6% | 48.8% | 12.4% | 7.54% | 95.8% | 99% | 88.5% | 5.75% | 3.42% | 98% | 96% | 87% | 25.4% | 6.2% | 91.9% | 57.7% | 98.8% | 91.5% | > 100%
7 | Clc1ccc(COC(Cn2ccnc2)c2ccc(Cl)cc2Cl)cc1 (stereo not given) [Econazole] | 89.9% | 92.9% | 99.9% | 88.6% | 73.3% | 77.8% | 95% | 70.2% | 75% | 60.6% | 91.4% | 96% | 92.2% | 84.9% | 44.9% | 70.3% | 85.8% | 73.5% | 34.5% | < 0%
8 | C[C@]12O[C@H](C[C@]1(O)CO)n1c3ccccc3c3c4c(c5c6ccccc6n2c5c31)CNC4=O [Lestaurtinib] | 96.4% | 74.7% | 41.8% | 56.9% | 1.92% | 89% | 46.6% | 48.2% | 57.7% | 1.29% | 87.2% | 66.8% | 73.2% | 93.9% | 8.53% | 64.5% | 34.5% | 45.6% | 73.9% | 9.05%
9 | CC(Cc1ccc(O)c(O)c1)C(C)Cc1ccc(O)c(O)c1 (stereo not given) [Masoprocol] | 94.1% | > 100% | 98.8% | 89.9% | 80% | 93.2% | 97.5% | 98.5% | 70.5% | 56.2% | 97.8% | 94.2% | > 100% | 72.2% | 33.9% | 56.6% | 47.4% | 89.9% | 42.2% | > 100%
10 | COc1c(C)c2c(c(O)c1C/C=C(\C)CCC(=O)O)C(=O)OC2 [Mycophenolic acid] | 88.3% | > 100% | 91% | > 100% | 78.1% | 61% | 90.7% | 73.5% | 68.1% | 63.1% | 83.4% | 97.6% | 81.8% | 93.2% | > 100% | 49.6% | 77.5% | 79.2% | 69.8% | 53.1%
11 | CCOC(=O)N1c2ccc(C(F)(F)F)cc2[C@@H](N(Cc2cc(C(F)(F)F)cc(C(F)(F)F)c2)C(=O)OC)C[C@H]1CC [Torcetrapib] | 96.7% | 85.1% | 99.1% | > 100% | 97.5% | > 100% | 71.5% | 92.1% | 81.1% | 48.2% | 89.2% | 80.7% | > 100% | > 100% | 50.4% | 49.2% | 62.1% | 78.5% | 44.5% | 38.2%
